According to ChEMBL document CHEMBL4028801, “A multifactorial approach to hepatobiliary transporter assessment enables improved therapeutic compound development” (Toxicol Sci, 2013):

Columns and labels:
Bile salt export pump = Bile salt export pump (Homo sapiens, UniProt O95342); assay: Inhibition of human BSEP overexpressed in Sf9 cell membrane vesicles assessed as uptake of [3H]-taurocholate in presence of ATP measured after 15 to 20 mins by membrane vesicle transport assay; assay type: ADME, cell-based
[1] = biological target: ATP-binding cassette sub-family C member 2 (Homo sapiens, UniProt Q92887); assay: Inhibition of human MRP2 overexpressed in Sf9 cell membrane vesicles assessed as uptake of [3H]-estradiol-17beta-D-glucuronide in presence of ATP and GSH measured after 20 mins by membrane vesicle transport assay
[2] = biological target: ATP-binding cassette sub-family C member 3 (Homo sapiens, UniProt O15438); assay: Inhibition of human MRP3 overexpressed in Sf9 insect cell membrane vesicles assessed as uptake of [3H]-estradiol-17beta-D-glucuronide in presence of ATP and GSH measured after 10 mins by membrane vesicle transport assay; assay type: ADME, cell-based
[3] = biological target: T1, ATP-binding cassette sub-family C member 4 (Homo sapiens, UniProt O15439); assay: Inhibition of human MRP4 overexpressed in Sf9 cell membrane vesicles assessed as uptake of [3H]-estradiol-17beta-D-glucuronide in presence of ATP and GSH measured after 20 mins by membrane vesicle transport assay; assay type: ADME, cell-based
T1 sequence (O15439 whole entry): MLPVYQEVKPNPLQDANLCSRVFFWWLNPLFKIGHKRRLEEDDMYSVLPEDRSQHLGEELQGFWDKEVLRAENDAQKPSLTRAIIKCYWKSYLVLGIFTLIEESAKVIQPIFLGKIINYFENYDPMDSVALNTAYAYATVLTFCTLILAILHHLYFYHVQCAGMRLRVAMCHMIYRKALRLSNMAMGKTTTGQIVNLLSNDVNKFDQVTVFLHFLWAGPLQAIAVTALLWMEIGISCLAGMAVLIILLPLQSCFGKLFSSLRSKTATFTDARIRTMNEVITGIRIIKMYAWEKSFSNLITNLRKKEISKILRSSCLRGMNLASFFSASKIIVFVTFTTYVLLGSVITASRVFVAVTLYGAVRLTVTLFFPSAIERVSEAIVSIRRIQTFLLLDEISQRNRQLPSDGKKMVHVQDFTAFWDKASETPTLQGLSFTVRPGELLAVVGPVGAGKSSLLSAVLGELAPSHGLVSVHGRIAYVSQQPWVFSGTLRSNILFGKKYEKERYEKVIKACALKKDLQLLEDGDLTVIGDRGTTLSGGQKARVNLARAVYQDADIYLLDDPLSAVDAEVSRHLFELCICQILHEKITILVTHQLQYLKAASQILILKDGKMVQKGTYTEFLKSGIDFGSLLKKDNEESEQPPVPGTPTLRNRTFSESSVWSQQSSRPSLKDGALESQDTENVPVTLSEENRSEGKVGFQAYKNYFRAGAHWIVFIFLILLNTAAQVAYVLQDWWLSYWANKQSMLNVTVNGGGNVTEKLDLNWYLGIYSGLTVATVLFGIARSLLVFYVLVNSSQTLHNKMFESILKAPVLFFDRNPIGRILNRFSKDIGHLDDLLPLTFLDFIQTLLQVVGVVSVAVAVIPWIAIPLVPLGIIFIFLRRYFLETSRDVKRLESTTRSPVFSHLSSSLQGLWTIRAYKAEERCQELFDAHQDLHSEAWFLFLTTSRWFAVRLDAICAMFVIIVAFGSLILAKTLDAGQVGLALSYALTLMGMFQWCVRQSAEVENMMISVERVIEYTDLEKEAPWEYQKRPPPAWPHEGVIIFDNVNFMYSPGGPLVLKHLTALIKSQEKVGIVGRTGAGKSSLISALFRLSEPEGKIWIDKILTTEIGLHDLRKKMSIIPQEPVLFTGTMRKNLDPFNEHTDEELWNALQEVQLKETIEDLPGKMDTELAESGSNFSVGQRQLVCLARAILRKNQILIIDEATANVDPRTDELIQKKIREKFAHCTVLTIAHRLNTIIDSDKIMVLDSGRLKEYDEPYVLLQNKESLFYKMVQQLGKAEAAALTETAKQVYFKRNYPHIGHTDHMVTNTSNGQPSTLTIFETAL

[4] = AUC in human at 50 mg, po QD after 24 hrs; assay type: ADME, organism-based; set-up: dose 50 mg, time < 24 hr, route oral; details: in vivo
[5] = Drug concentration at steady state in human at 50 mg, po QD after 24 hrs; assay type: ADME, organism-based; details: in vivo, read-out: Css
[6] = Ratio of drug concentration at steady state in human at 50 mg, po QD after 24 hrs to IC50 for human BSEP overexpressed in Sf9 insect cells; assay type: ADME, organism-based; details: in vivo
[7] = Ratio of drug concentration at steady state in human at 50 mg, po QD after 24 hrs to IC50 for human MRP2 overexpressed in Sf9 insect cells; assay type: ADME, organism-based; details: in vivo
[8] = Ratio of drug concentration at steady state in human at 50 mg, po QD after 24 hrs to IC50 for human MRP3 overexpressed in Sf9 insect cells; assay type: ADME, organism-based; details: in vivo
[9] = Ratio of drug concentration at steady state in human at 50 mg, po QD after 24 hrs to IC50 for human MRP4 overexpressed in Sf9 insect cells; assay type: ADME, organism-based; details: in vivo
[10] = Drug concentration at steady state in human at 200 to 1200 mg, po QD after 24 hrs; details: in vivo
clinical = details: human, in vivo, po
[11] = Ratio of drug concentration at steady state in human at 100 to 400 mg, po BID after 12 hrs to IC50 for human BSEP overexpressed in Sf9 insect cells; assay type: ADME, organism-based; details: in vivo
[12] = AUC in human at 50 to 400 mg, po BID after 12 hrs; assay type: ADME, organism-based; details: in vivo
[13] = Drug concentration at steady state in human at 50 to 400 mg, po BID after 12 hrs; assay type: ADME, organism-based; details: in vivo, read-out: Css
[14] = Ratio of drug concentration at steady state in human at 50 to 400 mg, po BID after 12 hrs to IC50 for human BSEP overexpressed in Sf9 insect cells; assay type: ADME, organism-based; details: in vivo
[15] = AUC in human at 40 to 80 mg, po TID after 8 hrs; assay type: ADME, organism-based; details: in vivo
[16] = Drug concentration at steady state in human at 40 to 80 mg, po TID after 8 hrs; assay type: ADME, organism-based; details: in vivo, read-out: Css
[17] = Ratio of drug concentration at steady state in human at 40 to 80 mg, po TID after 8 hrs to IC50 for human BSEP overexpressed in Sf9 insect cells; assay type: ADME, organism-based; details: in vivo
[18] = Ratio of drug concentration at steady state in human at 40 to 80 mg, po TID after 8 hrs to IC50 for human MRP4 overexpressed in Sf9 insect cells; assay type: ADME, organism-based; details: in vivo
[19] = AUC in human at 200 mg, po Q3h measured after 3 hrs; assay type: ADME, organism-based; set-up: dose 200 mg, time < 3 hr, route oral; details: in vivo
[20] = Drug concentration at steady state in human at 200 mg, po Q3h measured after 3 hrs; assay type: ADME, organism-based; details: in vivo, read-out: Css
[21] = Ratio of drug concentration at steady state in human at 200 mg, po Q3h measured after 3 hrs to IC50 for human BSEP overexpressed in Sf9 insect cells; assay type: ADME, organism-based; details: in vivo
[22] = Ratio of drug concentration at steady state in human at 200 mg, po Q3h measured after 3 hrs to IC50 for human MRP3 overexpressed in Sf9 insect cells; assay type: ADME, organism-based; details: in vivo
[23] = Ratio of drug concentration at steady state in human at 200 mg, po Q3h measured after 3 hrs to IC50 for human MRP4 overexpressed in Sf9 insect cells; assay type: ADME, organism-based; details: in vivo

Sequence of ATP-binding cassette sub-family C member 2 (Q92887 whole entry): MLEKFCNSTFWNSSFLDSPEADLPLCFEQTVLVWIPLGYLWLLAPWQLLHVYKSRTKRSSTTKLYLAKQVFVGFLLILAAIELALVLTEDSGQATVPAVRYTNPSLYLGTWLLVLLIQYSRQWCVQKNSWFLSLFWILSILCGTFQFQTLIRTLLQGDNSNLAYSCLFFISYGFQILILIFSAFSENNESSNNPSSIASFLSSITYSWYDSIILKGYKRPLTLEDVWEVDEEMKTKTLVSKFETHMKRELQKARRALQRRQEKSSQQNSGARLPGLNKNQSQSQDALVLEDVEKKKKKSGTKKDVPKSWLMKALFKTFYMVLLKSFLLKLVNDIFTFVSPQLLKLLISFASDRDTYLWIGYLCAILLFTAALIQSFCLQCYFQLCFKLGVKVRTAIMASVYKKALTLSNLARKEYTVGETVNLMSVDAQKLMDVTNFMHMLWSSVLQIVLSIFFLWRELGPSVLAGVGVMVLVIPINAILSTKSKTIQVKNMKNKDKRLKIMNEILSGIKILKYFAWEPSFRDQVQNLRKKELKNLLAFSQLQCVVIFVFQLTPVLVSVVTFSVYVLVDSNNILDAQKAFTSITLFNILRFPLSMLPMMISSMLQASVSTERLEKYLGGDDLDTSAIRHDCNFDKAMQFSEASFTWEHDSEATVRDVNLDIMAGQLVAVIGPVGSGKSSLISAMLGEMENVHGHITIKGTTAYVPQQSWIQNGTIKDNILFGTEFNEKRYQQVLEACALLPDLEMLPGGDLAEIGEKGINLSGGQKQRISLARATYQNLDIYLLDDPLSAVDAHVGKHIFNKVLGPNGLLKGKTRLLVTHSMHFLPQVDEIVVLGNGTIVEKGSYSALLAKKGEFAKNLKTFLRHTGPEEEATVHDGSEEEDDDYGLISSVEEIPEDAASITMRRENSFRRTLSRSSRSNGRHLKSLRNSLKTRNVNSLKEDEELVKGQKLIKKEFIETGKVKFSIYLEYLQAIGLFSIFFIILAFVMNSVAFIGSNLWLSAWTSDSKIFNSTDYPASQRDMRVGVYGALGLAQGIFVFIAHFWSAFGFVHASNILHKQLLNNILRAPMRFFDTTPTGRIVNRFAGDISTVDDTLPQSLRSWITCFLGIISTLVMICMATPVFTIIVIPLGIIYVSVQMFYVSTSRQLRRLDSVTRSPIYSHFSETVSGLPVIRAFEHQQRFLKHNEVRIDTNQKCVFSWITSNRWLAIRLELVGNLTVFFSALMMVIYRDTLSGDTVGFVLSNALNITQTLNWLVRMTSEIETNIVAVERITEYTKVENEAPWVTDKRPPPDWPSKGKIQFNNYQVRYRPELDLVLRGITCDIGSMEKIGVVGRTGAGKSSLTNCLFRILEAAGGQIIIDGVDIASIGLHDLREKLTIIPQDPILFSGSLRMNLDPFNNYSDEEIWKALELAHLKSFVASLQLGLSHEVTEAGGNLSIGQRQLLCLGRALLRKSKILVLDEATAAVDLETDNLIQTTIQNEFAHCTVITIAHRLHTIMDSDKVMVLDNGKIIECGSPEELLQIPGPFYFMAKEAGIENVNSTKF
Sequence of Bile salt export pump (O95342 whole entry): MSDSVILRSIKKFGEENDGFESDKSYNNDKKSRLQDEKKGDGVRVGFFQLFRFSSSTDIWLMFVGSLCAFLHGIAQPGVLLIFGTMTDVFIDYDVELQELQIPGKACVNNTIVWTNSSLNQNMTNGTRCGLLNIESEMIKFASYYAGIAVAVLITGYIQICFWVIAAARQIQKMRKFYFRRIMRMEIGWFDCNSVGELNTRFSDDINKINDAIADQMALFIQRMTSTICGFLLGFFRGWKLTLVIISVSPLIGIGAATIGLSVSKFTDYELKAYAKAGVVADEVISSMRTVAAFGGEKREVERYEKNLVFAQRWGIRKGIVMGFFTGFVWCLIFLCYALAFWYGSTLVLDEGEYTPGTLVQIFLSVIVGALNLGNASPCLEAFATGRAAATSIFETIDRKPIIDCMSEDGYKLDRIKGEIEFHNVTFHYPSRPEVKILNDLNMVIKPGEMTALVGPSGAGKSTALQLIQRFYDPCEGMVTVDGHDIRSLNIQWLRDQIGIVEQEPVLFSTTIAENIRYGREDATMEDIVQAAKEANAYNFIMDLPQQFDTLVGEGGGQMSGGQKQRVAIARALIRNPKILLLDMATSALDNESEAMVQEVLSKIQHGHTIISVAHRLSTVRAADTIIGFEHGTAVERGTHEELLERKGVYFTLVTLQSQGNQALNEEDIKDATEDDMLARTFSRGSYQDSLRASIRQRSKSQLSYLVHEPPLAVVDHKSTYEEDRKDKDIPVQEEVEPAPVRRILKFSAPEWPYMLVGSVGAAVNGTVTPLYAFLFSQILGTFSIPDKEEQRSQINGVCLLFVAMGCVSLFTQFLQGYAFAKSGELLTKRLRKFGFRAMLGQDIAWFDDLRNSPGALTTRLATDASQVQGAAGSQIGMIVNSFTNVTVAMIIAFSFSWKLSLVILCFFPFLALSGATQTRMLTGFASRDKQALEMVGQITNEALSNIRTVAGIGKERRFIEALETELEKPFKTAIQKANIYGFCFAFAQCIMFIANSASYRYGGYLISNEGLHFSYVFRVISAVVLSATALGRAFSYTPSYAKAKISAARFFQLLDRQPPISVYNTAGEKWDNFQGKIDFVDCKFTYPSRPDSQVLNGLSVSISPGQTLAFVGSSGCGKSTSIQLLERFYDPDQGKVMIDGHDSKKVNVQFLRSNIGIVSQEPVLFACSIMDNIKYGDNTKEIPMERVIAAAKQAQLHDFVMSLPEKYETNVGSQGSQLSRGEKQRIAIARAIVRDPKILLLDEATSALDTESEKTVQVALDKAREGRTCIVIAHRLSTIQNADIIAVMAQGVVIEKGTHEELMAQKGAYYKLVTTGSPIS
Sequence of ATP-binding cassette sub-family C member 3 (O15438 whole entry): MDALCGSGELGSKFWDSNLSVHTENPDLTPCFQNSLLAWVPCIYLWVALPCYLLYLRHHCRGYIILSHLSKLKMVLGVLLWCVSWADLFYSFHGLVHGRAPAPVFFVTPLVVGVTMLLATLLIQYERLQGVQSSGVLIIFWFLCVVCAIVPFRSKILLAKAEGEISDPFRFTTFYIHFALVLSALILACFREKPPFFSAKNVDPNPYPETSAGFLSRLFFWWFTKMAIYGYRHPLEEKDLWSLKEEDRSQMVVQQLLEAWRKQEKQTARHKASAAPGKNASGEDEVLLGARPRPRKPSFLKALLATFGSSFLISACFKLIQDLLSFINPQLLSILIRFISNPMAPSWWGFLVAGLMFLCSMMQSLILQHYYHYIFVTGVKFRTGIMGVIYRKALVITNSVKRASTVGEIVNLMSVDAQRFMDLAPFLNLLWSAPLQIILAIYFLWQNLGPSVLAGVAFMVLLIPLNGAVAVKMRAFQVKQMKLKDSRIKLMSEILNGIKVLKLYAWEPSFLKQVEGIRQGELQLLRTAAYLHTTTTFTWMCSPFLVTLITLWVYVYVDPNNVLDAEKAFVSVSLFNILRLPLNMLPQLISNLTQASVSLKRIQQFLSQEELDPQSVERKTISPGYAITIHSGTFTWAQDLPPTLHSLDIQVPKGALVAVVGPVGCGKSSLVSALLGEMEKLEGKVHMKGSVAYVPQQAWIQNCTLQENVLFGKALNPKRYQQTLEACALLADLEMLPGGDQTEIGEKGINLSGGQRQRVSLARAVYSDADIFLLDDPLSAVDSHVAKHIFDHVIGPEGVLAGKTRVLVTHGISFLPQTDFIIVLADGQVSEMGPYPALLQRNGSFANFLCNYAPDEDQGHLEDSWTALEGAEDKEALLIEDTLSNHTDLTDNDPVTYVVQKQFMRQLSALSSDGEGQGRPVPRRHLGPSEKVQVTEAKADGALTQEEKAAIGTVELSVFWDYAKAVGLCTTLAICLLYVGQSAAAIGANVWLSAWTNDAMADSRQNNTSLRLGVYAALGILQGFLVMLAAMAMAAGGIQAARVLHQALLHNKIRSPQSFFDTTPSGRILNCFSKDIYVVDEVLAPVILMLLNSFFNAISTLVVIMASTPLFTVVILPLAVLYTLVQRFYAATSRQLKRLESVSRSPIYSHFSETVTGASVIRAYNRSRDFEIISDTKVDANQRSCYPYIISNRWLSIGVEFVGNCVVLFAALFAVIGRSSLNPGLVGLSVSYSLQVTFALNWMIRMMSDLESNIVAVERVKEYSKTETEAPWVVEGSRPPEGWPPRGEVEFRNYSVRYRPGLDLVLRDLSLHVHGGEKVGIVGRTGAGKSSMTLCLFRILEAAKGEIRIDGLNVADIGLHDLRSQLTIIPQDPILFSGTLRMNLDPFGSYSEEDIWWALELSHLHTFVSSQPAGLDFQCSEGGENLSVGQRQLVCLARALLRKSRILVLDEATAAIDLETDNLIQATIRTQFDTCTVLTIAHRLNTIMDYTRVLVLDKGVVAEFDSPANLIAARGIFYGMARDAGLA

In the case of `CC(/C=C1\SC(=S)N(CC(=O)O)C1=O)=C\c1ccccc1`, the IC50 (Bile salt export pump) is reported as 36.8 µM, the IC50 [1] is reported as 84.4 µM and the IC50 [2] is reported as 45.8 µM. For the same molecule, the IC50 [3] was 6.5 µM, the AUC at 24 h [4] was 20 µM·h and the concentration at 24 h [5] was 0.835 µM. The Ratio [6] was 0.01, the Ratio [7] was 0.01 and the Ratio [8] was 0.018. For the same molecule, the Ratio [9] was 0.128.
In the case of `CCCCc1oc2ccccc2c1C(=O)c1cc(I)c(OCCN(CC)CC)c(I)c1` [AMIODARONE], the IC50 [1] is reported as > 133 µM, the IC50 [2] is reported as > 133 µM and the IC50 [3] is reported as > 133 µM. For the same molecule, the concentration at 24 h [10] was 1.36 µM and the AUC at 24 h (clinical) was 32.7 µM·h.
With `COCC1=C(C(=O)OC(C)OC(=O)OC(C)C)N2C(=O)[C@@H](NC(=O)/C(=N\OC)c3csc(N)n3)[C@H]2SC1` (stereo partly drawn) [CEFPODOXIME PROXETIL] the IC50 (Bile salt export pump) was 81.7 µM, the IC50 [1] was > 133 µM and the IC50 [2] was > 133 µM. The IC50 [3] was > 133 µM and the Ratio [11] was 0.022.
With `C#C[C@]1(O)CC[C@H]2[C@@H]3CCC4=Cc5oncc5C[C@]4(C)[C@H]3CC[C@@]21C` [DANAZOL] the IC50 (Bile salt export pump) was 18.7 µM, the IC50 [1] was > 133 µM and the IC50 [2] was > 133 µM. For the same molecule, the IC50 [3] was > 133 µM, the AUC at 12 h [12] was 5.48 µM·h and the concentration at 12 h [13] was 0.457 µM. It also gave a Ratio [14] of 0.024.
For `CCOc1ccc(/C=C2\NCCc3cc(OCC)c(OCC)cc32)cc1OCC` [DROTAVERINE], the IC50 [1] was > 133 µM, the IC50 [2] was > 133 µM and the IC50 [3] was 24.5 µM. For the same molecule, the AUC at 8 h [15] was 8.18 µM·h, the concentration at 8 h [16] was 1.02 µM and the Ratio [17] was 0.028. The Ratio [18] was 0.042.
In the case of `CCN(CC)C(=O)/C(C#N)=C/c1cc(O)c(O)c([N+](=O)[O-])c1` [ENTACAPONE], the IC50 (Bile salt export pump) is reported as 55.6 µM, the IC50 [1] is reported as > 133 µM and the IC50 [2] is reported as 35.1 µM. For the same molecule, the IC50 [3] was 6.8 µM, the AUC at 3 h [19] was 5.29 µM·h and the concentration at 3 h [20] was 1.76 µM. The Ratio [21] was 0.032, the Ratio [22] was 0.05 and the Ratio [23] was 0.259.
